# Results: a melting point compilation (Tetko et al.; mined from patent text by program, amines drawn as free bases though some values may be those of a salt)
row,SMILES,melting point [°C]
1,O=C1c2ccccc2C(=O)N1OCCCN1CCOCC1,98
2,CSC1C(=O)c2ccccc2N1C(=O)c1ccccc1 (configuration not stated),126 to 128
3,N#Cc1c(N)oc2c1c(Cc1ccccc1)c(O)c1ccccc12,224 to 225
4,O=C(O)CNC(=O)CN1CCCC1=O,149 to 150
5,CC(=O)OCC(=O)NCc1cccc(-c2csc(N=C(N)NC(=O)COC(C)=O)n2)n1,148 to 151
6,O=C(OCc1ccccc1)C(CO)N(C(=O)OCc1ccccc1)C(=O)c1ccccc1 (configuration not stated),94 to 95
7,Cc1nc2cc(C(F)(F)F)ccc2n1-c1ccc(OC(C)CCC(=O)O)cc1 (configuration not stated),67 to 68
8,CC(=O)c1c[nH]c2c3c(ccc12)OCC3,233 to 234
9,CCOC(=O)[C@@H](Cc1ccc2ccc(C#N)cc2c1)c1ccc(O[C@H]2CCN(Cc3ccccc3)C2)cc1,95 to 95.5
10,CNS(=O)(=O)c1ccc(Nc2cc(-n3ccc(C(F)(F)F)n3)c3ccccc3n2)cc1,220 to 222
11,O=C(O)c1ccccc1Oc1ccc(C(F)(F)F)cc1NS(=O)(=O)c1cc(C(F)(F)F)cc(C(F)(F)F)c1,133 to 134
12,FC(F)(F)c1cccc(-c2c[nH]c(C3CCN(c4ncnc5[nH]ncc45)CC3)n2)c1,281
13,O=C(NC(c1ccccc1)c1cc2ccncc2[nH]1)c1ccncc1 (configuration not stated),182 to 192
14,COCC#Cc1cc2c(O)c(C(=O)NCc3ccc(Cl)cc3)cnc2s1,215 to 218
15,Cc1cc(SCc2cccc3cn(-c4ccc(C(F)(F)F)cc4)nc23)ccc1OCC(=O)O,79 to 81
16,O=C(c1ccccc1)c1ccc2nc(-c3ccc[nH]3)[nH]c2c1,128 to 133
17,COc1ccccc1NC(=O)Nc1nc(Nc2ccccc2-c2ccccc2)nc(N(CCC(=O)O)Cc2ccc(F)cc2)n1,108
18,CCOc1nc(C)nc(N2CCc3ccccc3CC2)c1C#N,106 to 109
19,CN1C(=O)[C@H](NC(=O)CNc2ccccc2)N=C(c2ccccc2)c2ccccc21,245 to 246

row,SMILES,melting point [°C]
1,O=S(=O)(NC(=NO)Nc1ccc(Cl)cc1)c1cc(S(=O)(=O)c2ccccc2)cs1,195
2,CC(=O)NS(=O)(=O)c1cncc([N+](=O)[O-])c1,176 to 178
3,BrCc1ccccc1Oc1ccc(Br)cc1,56 to 58
4,O=C(Nc1cccc(-c2ccccc2)c1)Nc1cccc2[nH]ccc12,213 to 215
5,CC(=O)NC[C@H]1CN(c2ccc(N3CCC(CC#N)CC3)cc2)C(=O)O1,150 to 152
6,COc1ccc(C)cc1NC(=O)Nc1ccc(N2CCN(C(=O)Nc3cc(OCC(O)CO)ccc3Cl)CC2)cc1 (configuration not stated),114 to 118
7,Cc1ccc(-c2ccccc2-c2n[nH]c(C(c3ccccc3)(c3ccccc3)c3ccccc3)n2)cc1,120 to 122
8,Cc1ccc(-c2nn(CCCO)c(N)c2C(N)=O)cc1,164 to 165
9,C#Cc1cc2nc(O)c(O)nc2cc1[N+](=O)[O-],> 300
10,Cc1cc(C)c([N+](=O)[O-])c(C)c1-c1n[nH]c2c(C#N)c(C(C)(C)C)nn12,265 to 266
11,CN(C)C1CCC(Nc2nc3cc(Cl)c(Cl)cc3nc2-c2cccnc2)CC1 (configuration not stated),158 to 161
12,Cn1c(N2CCOC(c3noc(-c4ccccc4)n3)C2)nc(-c2ccncn2)cc1=O (configuration not stated),208
13,CCc1cc(=O)n(-c2cc(C(=O)OC(C)C)c(Cl)cc2F)c(=O)[nH]1,121 to 124
14,CS(=O)(=O)Nc1cc(C(=O)c2ccccc2)ccc1N,184 to 186
15,O=C(O)c1cccc(Oc2ncccc2C(=O)NCc2ccccc2)c1,157 to 158
16,CCO[C@@H](Cc1ccc(OCCc2nc(C(C)(C)C)oc2C)c2ccsc12)C(=O)O,152 to 153
17,c1csc(N2CCN(Cc3ccc4sccc4c3)CC2)n1,80 to 82
18,CC(=O)Oc1c(Cl)cc(Cl)cc1C1(OC(C)=O)C(=O)c2ccccc2C1=O,178 to 180
